Data taken from patent publication US20110207926A1, “NOVEL DIHYDROTRIAZINE DERIVATIVE” (HAMARI CHEMICALS, LTD., priority 2008, published 2011).
Where two headings read alike, the source gives them in different places.

Legend:
MRSA ATCC 33591 = experiment: Bactericidal activity test (MBC measurement); format: cell-based, methicillin-resistant Staphylococcus aureus; settings: Staphylococcus aureus, read-out: MBC
Experimental: (§1) Each strain was cultured in Trypticase Soy agar medium for 18 to 20 hr, suspended in 0.1% peptone saline, and prepared to OD 600 nm, 1.0 McFarland. The suspension was further diluted with 0.1% peptone saline to give a test bacteria solution (targeted value; 2×10^7 CFU/mL).
(§2) At 0.5, 1 and 3 min from the start of the reaction, a part of the reaction mixture was sampled and mixed with an equal amount of a neutralizing agent (10% Tween 80, 3% lecithin/aqueous solution) to terminate the bactericidal reaction. The reaction mixture was inoculated to a 96 well microplate dispensed with 180 μL of Tripticase Soy liquid medium in advance, and statically cultured at 37° C. for 20 to 24 hr. Thereafter, the presence or absence of growth was visually evaluated, and the minimum concentration at which growth was not observed was taken as the minimal bactericidal concentration (MBC value) of each action time. The numerical values in the Tables show MBC, the unit is μg/mL, S. aureus means Staphylococcus aureus, MRSA means methicillin-resistant Staphylococcus aureus, E. coli means Escherichia coli, and P. aeruginosa means Pseudomonas aeruginosa.

[1] = Skin sensitivity test, LLNA-BrdU method (lymph node weight); format: in vivo; settings: 5 w/v % in acetone/olive oil 4:1, transdermal to auricle once a day for 3 days, mice
Experimental: For application of an external bactericidal/disinfectant agent to the skin, the sensitivity (allergenicity) is desirably as small as possible. […] The sensitivity was evaluated by a Local lymph node assay (LLNA) method using Bromodeoxyuridine (BrdU). In this test, measurement of the amount of BrdU uptaken by the lymph node using an ELISA kit was not performed, and the evaluation was based solely on the weight increase of the lymph node.
8-Week-old female CBA/JN Crlj mice were grouped (3 per group) according to the adequate strafication method based on the body weight (about 20 g) on the first day of administration. A test substance was prepared to 5 w/v % for each test substance by using a mixed solution of acetone and olive oil (v/v=4:1, A00). This was repeatedly administered transdermally to the auricle of the mice at 25 μL/auricle (50 for both auricles) once a day for 3 days. Two days after the final administration, BrdU 10 mg/mL (0.5 mL/mouse) was intraperitoneally administered. Three days after the final transdermal administration (next day of BrdU administration), carbon dioxide was given by inhalation to a comfortable death, and the auricle lymph node was isolated and the weight thereof was measured.

P. aeruginosa PAO-1 = experiment: Bactericidal activity test (MBC measurement); format: cell-based, Pseudomonas aeruginosa; settings: Pseudomonas aeruginosa, read-out: MBC
Experimental: as §1, §2

P. aeruginosa ATCC 27853 = experiment: Bactericidal activity test (MBC measurement); format: cell-based, Pseudomonas aeruginosa; settings: Pseudomonas aeruginosa, read-out: MBC
Experimental: as §1, §2

S. aureus ATCC 6538 = experiment: Bactericidal activity test (MBC measurement); format: cell-based, Staphylococcus aureus; settings: Staphylococcus aureus, read-out: MBC
Experimental: as §1, §2

E. coli ATCC 25922 = experiment: Bactericidal activity test (MBC measurement); format: cell-based, Escherichia coli; settings: Escherichia coli, read-out: MBC
Experimental: as §1, §2

[2] = Water solubility test (Japanese Pharmacopoeia solubility test method); format: physicochemical; settings: 20±5° C., dissolution in 30 min
Experimental: According to the Japanese Pharmacopoeia solubility test method, the compounds of Examples 1 and 7 of the present invention and the corresponding N-methyl unsubstituted compounds were examined for water solubility. To be specific, a test substance was powderized, placed in water and the mixture was vigorously shaken for 30 sec every 5 min at 20±5° C. The solubility was evaluated based on the degree of dissolution in 30 min by reference to the following Table 9.

[3] = 0.5 min, MRSA ATCC 33591, action time 0.5 min
[4] = PAO1, 0.5 min, P. aeruginosa PAO-1, action time 0.5 min
[5] = ATCC27853, 0.5 min, P. aeruginosa ATCC 27853, action time 0.5 min
[6] = ATCC6538, 0.5 min, S. aureus ATCC 6538, action time 0.5 min
[7] = ATCC25922, 0.5 min, E. coli ATCC 25922, action time 0.5 min

Row | SMILES | MBC (MRSA ATCC 33591; [3]) [µg/mL] | SI value (Stimulation index, lymph node weight ratio to solvent group) [1] | MBC (P. aeruginosa PAO-1; [4]) [µg/mL] | MBC (P. aeruginosa ATCC 27853; [5]) [µg/mL] | MBC (S. aureus ATCC 6538; [6]) [µg/mL] | MBC (E. coli ATCC 25922; [7]) [µg/mL] | water (mL) to dissolve 1 g [2] [mL] | evaluation (water solubility) ([2]; criteria of Table 9) | MBC (MRSA ATCC 33591; 1 min, MRSA ATCC 33591, action time 1 min) [µg/mL] | MBC (MRSA ATCC 33591; 0.05 h, MRSA ATCC 33591, action time 3 min) [µg/mL] | MBC (P. aeruginosa PAO-1; PAO1, 1 min, P. aeruginosa PAO-1, action time 1 min) [µg/mL] | MBC (P. aeruginosa PAO-1; PAO1, 0.05 h, P. aeruginosa PAO-1, action time 3 min) [µg/mL] | MBC (P. aeruginosa ATCC 27853; ATCC27853, 1 min, P. aeruginosa ATCC 27853, action time 1 min) [µg/mL] | MBC (P. aeruginosa ATCC 27853; ATCC27853, 0.05 h, P. aeruginosa ATCC 27853, action time 3 min) [µg/mL] | MBC (S. aureus ATCC 6538; ATCC6538, 1 min, S. aureus ATCC 6538, action time 1 min) [µg/mL] | MBC (S. aureus ATCC 6538; ATCC6538, 0.05 h, S. aureus ATCC 6538, action time 3 min) [µg/mL] | MBC (E. coli ATCC 25922; ATCC25922, 1 min, E. coli ATCC 25922, action time 1 min) [µg/mL] | MBC (E. coli ATCC 25922; ATCC25922, 0.05 h, E. coli ATCC 25922, action time 3 min) [µg/mL]
1 | CCCCCCCCNC1=NC(C)(C)NC(N(C)Cc2ccccc2)=N1 [Example 5, N^4-octyl-1,6-dihydro-6,6-dimethyl-N^2-benzyl-N^2-methyl-1,3,5-triazine-2,4-diamine acetate] | 50 | 0.9 | 25 | 12.5 | 200 | 25 | – | – | – | – | – | – | – | – | – | – | – | –
2 | CCCCCCCCN(C)C1=NC(C)(C)NC(NCc2ccc(C)cc2)=N1 [Example 7, N^4-octyl-N^4-methyl-1,6-dihydro-6,6-dimethyl-N^2-(4-methylbenzyl)-1,3,5-triazine-2,4-diamine acetate] | – | 2.6 | – | – | – | – | 0.9 | very soluble (less than 1 mL) | – | – | – | – | – | – | – | – | – | –
3 | CCCCCCCCN(C)C(=N)/N=C(\N)NCc1ccc(Cl)cc1.Cl [Example 27, N^5-octyl-N^5-methyl-N^1-(4-chlorobenzyl)biguanide hydrochloride] | 50 | 2.4 | 12.5 | 12.5 | 50 | 25 | – | – | 25 | 25 | 12.5 | 12.5 | 12.5 | 6.25 | 25 | 25 | 6.25 | 6.25
